Assay results published in ChEMBL document CHEMBL5104199, “Design, Synthesis, and Biochemical and Biological Evaluation of Novel 7-Deazapurine Cyclic Dinucleotide Analogues as STING Receptor Agonists” (J Med Chem, 2022).

Assays:
[1] = molecular target: T1, Stimulator of interferon genes protein (Homo sapiens, UniProt Q86WV6); experiment: Agonist activity at human wild type STING expressed in 293T cells by digitonin cell based assay; parameters: species or system HEK293T
[2] = Induction of IFNgamma secretion in human PBMC incubated for 16 hrs
[3] = Induction of TNFalpha secretion in human PBMC incubated for 16 hrs
[4] = Induction of IFNalpha secretion in human PBMC incubated for 16 hrs
[5] = Cytotoxicity against human PBMC cells; format: toxicity, cell-based
[6] = molecular target: T1, Stimulator of interferon genes protein; settings: filed as agonist
Description: Binding affinity to human wild type STING assessed as change in melting temperature by differential scanning fluorimetry (DSF) method

[7] = cells; settings: Homo sapiens, HEK-293T
Description: Agonist activity at human STING HAQ expressed in 293T cells by digitonin cell based assay

[8] = cells; settings: Homo sapiens, HEK-293T; remark: listed apart in the source
Description: Agonist activity at human STING REF expressed in 293T cells by digitonin cell based assay

[9] = cells; settings: Homo sapiens, HEK-293T; remark: listed apart in the source
Description: Agonist activity at human STING AQ expressed in 293T cells by digitonin cell based assay

[10] = cells; settings: Homo sapiens, HEK-293T; remark: listed apart in the source
Description: Agonist activity at human STING Q expressed in 293T cells by digitonin cell based assay

[11] = molecular target: T1, Stimulator of interferon genes protein; experiment: Agonist activity at human wild type full length STING expressed in 293T cells incubated for 7 hrs by luciferase/cell based assay; parameters: species or system HEK-293T

T1 sequence (Q86WV6 whole entry): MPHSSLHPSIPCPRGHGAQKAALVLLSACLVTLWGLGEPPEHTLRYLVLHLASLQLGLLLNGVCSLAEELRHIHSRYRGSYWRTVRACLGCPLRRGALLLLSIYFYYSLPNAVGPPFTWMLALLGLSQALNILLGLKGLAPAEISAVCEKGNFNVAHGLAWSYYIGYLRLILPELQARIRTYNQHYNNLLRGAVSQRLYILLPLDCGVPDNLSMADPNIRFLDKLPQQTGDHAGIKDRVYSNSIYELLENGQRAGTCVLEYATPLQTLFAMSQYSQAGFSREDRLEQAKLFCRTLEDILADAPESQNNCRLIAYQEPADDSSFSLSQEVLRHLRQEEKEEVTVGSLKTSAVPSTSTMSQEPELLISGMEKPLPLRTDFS

| SMILES | EC50 [1] | EC50 [2] | EC50 [3] | EC50 [4] | ΔTm [6] | EC50 [7] | EC50 [8] | EC50 [9] | EC50 [10] | EC50 [11] | Activity [5] |
| --- | --- | --- | --- | --- | --- | --- | --- | --- | --- | --- | --- |
| Nc1nc2c(ncn2[C@@H]2O[C@@H]3COP(=O)(O)O[C@H]4[C@@H](O)[C@H](n5cnc6c(N)ncnc65)O[C@@H]4COP(=O)(O)O[C@H]3[C@H]2O)c(=O)[nH]1 |  | 17200 nM | 18700 nM | 7650 nM |  |  |  |  |  |  | Non-Toxic |
| Nc1nc2c(c(-c3ccccc3)cn2[C@@H]2O[C@@H]3COP(=O)(O)O[C@H]4[C@@H](O)[C@H](n5cc(-c6ccccc6)c6c(N)ncnc65)O[C@@H]4COP(=O)(O)O[C@@H]2[C@@H]3O)c(=O)[nH]1 | 6410 nM |  |  |  | 1 °C | 9420 nM | 19500 nM | 10300 nM | 271 nM | > 150000 nM |  |
| Nc1nc2c(ncn2[C@@H]2O[C@@H]3COP(=O)(O)O[C@H]4[C@@H](O)[C@H](n5cc(-c6ccco6)c6c(N)ncnc65)O[C@@H]4COP(=O)(O)O[C@@H]2[C@@H]3O)c(=O)[nH]1 |  |  |  |  |  |  |  |  |  |  | Non-Toxic |
| Nc1nc2c(ncn2[C@@H]2O[C@@H]3COP(=O)(O)O[C@H]4[C@@H](O)[C@H](n5cc(-c6cccs6)c6c(N)ncnc65)O[C@@H]4COP(=O)(O)O[C@@H]2[C@@H]3O)c(=O)[nH]1 |  |  |  |  |  |  |  |  |  |  | Non-Toxic |
| Nc1nc2c(ncn2[C@@H]2O[C@@H]3COP(=O)(O)O[C@H]4[C@@H](O)[C@H](n5cc(-c6cc7ccccc7c7ccccc67)c6c(N)ncnc65)O[C@@H]4COP(=O)(O)O[C@@H]2[C@@H]3O)c(=O)[nH]1 | 61 nM |  | > 200000 nM | > 200000 nM | 4.4 °C | 900 nM | > 45000 nM | 1400 nM | > 45000 nM |  | Non-Toxic |
| Nc1nc2c(ncn2[C@@H]2O[C@@H]3COP(=O)(O)O[C@H]4[C@@H](O)[C@H](n5cc(-c6ccc(-c7ccc8ccccc8c7)cc6)c6c(N)ncnc65)O[C@@H]4COP(=O)(O)O[C@@H]2[C@@H]3O)c(=O)[nH]1 | 32 nM | 1770 nM | 53900 nM | 5090 nM | 13 °C | 132 nM | 1000 nM | 160 nM | 950 nM |  | Non-Toxic |
| Nc1ncnc2c1c(-c1ccccc1)cn2[C@@H]1O[C@@H]2COP(=O)(O)O[C@@H]3[C@H](O)[C@@H](COP(=O)(O)O[C@H]2[C@H]1O)O[C@H]3n1cc(-c2ccccc2)c2c(N)ncnc21 | > 45000 nM |  |  |  | -0.6 °C | > 45000 nM | > 45000 nM | > 45000 nM | > 45000 nM | > 150000 nM |  |
| Nc1nc2c(ncn2[C@@H]2O[C@@H]3COP(=O)(O)O[C@@H]4[C@H](O)[C@@H](COP(=O)(O)O[C@@H]2[C@@H]3O)O[C@H]4n2cnc3c(N)ncnc32)c(=O)[nH]1 | 260 nM | 11800 nM | 44500 nM | 7210 nM | 2.5 °C | 189 nM | 59500 nM | 173 nM | 7090 nM | > 150000 nM | Non-Toxic |
| Cc1cn([C@@H]2O[C@@H]3COP(=O)(O)O[C@@H]4[C@H](O)[C@@H](COP(=O)(O)O[C@H]3[C@H]2O)O[C@H]4n2cnc3c(=O)[nH]c(N)nc32)c2ncnc(N)c12 |  |  |  |  |  |  |  |  |  |  | Non-Toxic |
| Nc1nc2c(ncn2[C@@H]2O[C@@H]3COP(=O)(O)O[C@H]4[C@@H](O)[C@H](n5cc(C6CC6)c6c(N)ncnc65)O[C@@H]4COP(=O)(O)O[C@@H]2[C@@H]3O)c(=O)[nH]1 |  |  |  |  |  |  |  |  |  |  | Non-Toxic |
| Nc1nc2c(ncn2[C@@H]2O[C@@H]3COP(=O)(O)O[C@H]4[C@@H](O)[C@H](n5cnc6c(N)ncnc65)O[C@@H]4COP(=O)(O)O[C@@H]2[C@@H]3O)c(=O)[nH]1 |  |  |  |  |  |  |  |  |  |  | Non-Toxic |

Continued, in another order:

| EC50 [1] | EC50 [2] | EC50 [3] | EC50 [4] | ΔTm [6] | EC50 [7] | EC50 [8] | EC50 [9] | EC50 [10] | EC50 [11] | SMILES | Activity [5] |
| --- | --- | --- | --- | --- | --- | --- | --- | --- | --- | --- | --- |
| 35 nM | 870 nM | 1430 nM | 4040 nM | 13.5 °C | 195 nM | 350 nM | 330 nM | 250 nM |  | Nc1nc2c(ncn2[C@@H]2O[C@@H]3COP(=O)(O)O[C@H]4[C@@H](O)[C@H](n5cc(-c6cc7ccccc7s6)c6c(N)ncnc65)O[C@@H]4COP(=O)(O)O[C@@H]2[C@@H]3O)c(=O)[nH]1 | Non-Toxic |
| 1100 nM |  | > 200000 nM |  | 4.4 °C | 497 nM | 18900 nM | 470 nM | 7230 nM |  | Nc1nc2c(ncn2[C@@H]2O[C@@H]3COP(=O)(O)O[C@H]4[C@@H](O)[C@H](n5cc(-c6cccc7ccccc67)c6c(N)ncnc65)O[C@@H]4COP(=O)(O)O[C@@H]2[C@@H]3O)c(=O)[nH]1 | Non-Toxic |
| 13 nM | 2050 nM | 13600 nM | 7430 nM | 12.3 °C | 173 nM | 346 nM | 92 nM | 235 nM |  | Nc1nc2c(ncn2[C@@H]2O[C@@H]3COP(=O)(O)O[C@H]4[C@@H](O)[C@H](n5cc(-c6ccc(-c7ccccc7)cc6)c6c(N)ncnc65)O[C@@H]4COP(=O)(O)O[C@@H]2[C@@H]3O)c(=O)[nH]1 | Non-Toxic |
| 367 nM |  | 99700 nM |  | 7.1 °C | 503 nM | 8970 nM | 869 nM | 7070 nM |  | Nc1nc2c(ncn2[C@@H]2O[C@@H]3COP(=O)(O)O[C@H]4[C@@H](O)[C@H](n5cc(-c6cccc7c6oc6ccccc67)c6c(N)ncnc65)O[C@@H]4COP(=O)(O)O[C@@H]2[C@@H]3O)c(=O)[nH]1 | Non-Toxic |
| 110 nM | 12600 nM | 65800 nM | 6920 nM | 5.1 °C | 367 nM | 10400 nM | 280 nM | 4480 nM | > 150000 nM | Nc1nc2c(ncn2[C@@H]2O[C@@H]3COP(=O)(O)O[C@H]4[C@@H](O)[C@H](n5cc(-c6ccccc6)c6c(N)ncnc65)O[C@@H]4COP(=O)(O)O[C@H]3[C@H]2O)c(=O)[nH]1 | Non-Toxic |
| 48 nM |  | 98800 nM |  | 14.4 °C | 695 nM | 1400 nM | 550 nM | 700 nM |  | Nc1nc2c(ncn2[C@@H]2O[C@@H]3COP(=O)(O)O[C@H]4[C@@H](O)[C@H](n5cc(-c6ccc7ccccc7c6)c6c(N)ncnc65)O[C@@H]4COP(=O)(O)O[C@@H]2[C@@H]3O)c(=O)[nH]1 | Non-Toxic |
| 76 nM | 8330 nM | 24600 nM | 12800 nM | 12.1 °C | 60 nM | 334 nM | 85 nM | 176 nM |  | Nc1nc2c(ncn2[C@@H]2O[C@@H]3COP(=O)(O)O[C@H]4[C@@H](O)[C@H](n5cc(-c6cc7ccccc7o6)c6c(N)ncnc65)O[C@@H]4COP(=O)(O)O[C@@H]2[C@@H]3O)c(=O)[nH]1 | Non-Toxic |
| 63 nM |  | 52400 nM |  | 8.1 °C | 385 nM | 5900 nM | 307 nM | 1700 nM |  | Nc1nc2c(ncn2[C@@H]2O[C@@H]3COP(=O)(O)O[C@H]4[C@@H](O)[C@H](n5cc(-c6ccccc6)c6c(N)ncnc65)O[C@@H]4COP(=O)(O)O[C@@H]2[C@@H]3O)c(=O)[nH]1 | Non-Toxic |
| 1160 nM | 85200 nM | > 200000 nM | 74700 nM | 2.5 °C | 1630 nM | > 45000 nM | 1530 nM | 35800 nM | > 150000 nM | Nc1nc2c(ncn2[C@@H]2O[C@@H]3COP(=O)(O)O[C@H]4[C@@H](O)[C@H](n5cc(-c6ccc7c8c(cccc68)CC7)c6c(N)ncnc65)O[C@@H]4COP(=O)(O)O[C@@H]2[C@@H]3O)c(=O)[nH]1 | Non-Toxic |
